# Where a name gives a salt, the structure may show the parent alone. Read-outs that look alike come from different tables or passages of the source.
# Legend:
# [1] = tested on: acetic acid-induced writhing in ddy mice; assay: animal or person; type: in vivo, 5 week old ddy mice; conditions: for ED50: s.c. 15 minutes before acetic acid; for analgesic activity: s.c., in words
# Procedure: 5 week old ddy mice were used in this test. After intraperitoneal administration of 0.1 ml of 0.6% aqueous acetic acid per 10 g of body weight, the number of writhing reactions that occurred in 10 minutes starting 10 minutes after administration was evaluated for the indicator. The test drug was administered subcutaneously into the backs of the animals 15 minutes before administration of acetic acid.
# [2] = biological target: T1, μ receptor (Mus musculus, UniProt P42866); assay: Opioid activity test using an extracted mouse vas deferens preparation, Ke with naloxone; design: species or system male ddy mouse; conditions: naloxone added
# T1 construct: naloxone as mu antagonist (printed 'agonist')
# Procedure: (§1) A male ddy mouse was used in this test. The vas deferens extracted from the animal was suspended in a Magnus tube filled with Krebes-Henseleit solution (NaCl 118 mM; KCl 4.7 mM; CaCl2 2.5 mM; KH2 PO4 1.1 mM; NaHCO3 25 mM; Glucose 11 mM) warmed to 37° C. and ventilated with 5% carbon dioxide and 95% oxygen. Electrical stimulus was performed at 0.1 Hz for 5.0 ms by means of ring-shaped platinum electrodes located above and below. Tissue contractions were recorded on a polygraph using an isometric transducer.
# (§2) After adequately washing with nutrient solution and the contraction reaction stabilized, the μ agonist, naloxone, the δ agonist, NTI, or the κ agonist, norBNI, was added after which the test compound was again cumulatively added after roughly 20 minutes. The Ke value was calculated using the following calculation formula from the difference in the efficacies of both agonists.
# (§3) Ke=[Conc. of added agonist]/(IC50 ratio-1)
# (§4) IC50 ratio=IC50 in the presence of agonist/IC50 in the absence of agonist
# [3] = biological target: T2, δ receptor (Mus musculus, UniProt P32300); design: species or system male ddy mouse; conditions: for receptor selectivity of agonist (δ): in words
# T2 construct: The vas deferens extracted from the animal was suspended in a Magnus tube; from tissue; host or cells: mouse (male ddy) vas deferens
# [4] = tested on: extracted mouse vas deferens preparation; assay: Opioid activity test using an extracted mouse vas deferens preparation (suppression of electrically induced contractions); design: species or system male ddy mouse; conditions: electrical stimulus 0.1 Hz, 37° C.
# Procedure: as §1, §2
# [5] = biological target: T3, κ receptor (Mus musculus, UniProt P33534); assay: Opioid activity test using an extracted mouse vas deferens preparation, Ke with norBNI; design: species or system male ddy mouse; conditions: for Ke, norBNI: κ, norBNI added; for receptor selectivity of agonist (κ): in words
# T3 construct: from tissue; host or cells: mouse (male ddy) vas deferens
# Procedure: as §1, §2, §3, §4
# [6] = Diuretic action (urine output for 5 hours after physiological saline loading in rats); type: in vivo, male Wistar rats; conditions: for ED (200% urine output) / ED (500% urine output): Rattus norvegicus, sc, 5 hours after saline 20 ml/kg p.o.; for ED (200% urine output): dose giving urine output of 200 (non-dosed group = 100); for ED (500% urine output): dose giving urine output of 500 (non-dosed group = 100)
# Procedure: 7-8 week old male Wistar rats were used in this test after prohibiting from drinking water for 1 hour before the start of testing. After discharging any urine accumulated in the bladder by gently stimulating the lower abdomens of the animals, the drug was administered subcutaneously. After 30 minutes, the animals were then forcibly given 20 ml/kg of physiological saline orally. The animals were placed in metabolic cages immediately after administration of the drug (2 animals/cage) and urine output for 5 hours after loading with physiological saline was measured. Drug efficacy was expressed in the form of those doses resulting in urine outputs of 200 and 500, respectively, when the urine output of a non-dosed group was taken to be 100. Those doses were expressed as the ED200 and ED500 values, respectively.
# [7] = Mus musculus, sc, read-out: ED50
# [8] = mouse vas deferens, δ, NTI added
# T3 sequence (P33534 whole entry): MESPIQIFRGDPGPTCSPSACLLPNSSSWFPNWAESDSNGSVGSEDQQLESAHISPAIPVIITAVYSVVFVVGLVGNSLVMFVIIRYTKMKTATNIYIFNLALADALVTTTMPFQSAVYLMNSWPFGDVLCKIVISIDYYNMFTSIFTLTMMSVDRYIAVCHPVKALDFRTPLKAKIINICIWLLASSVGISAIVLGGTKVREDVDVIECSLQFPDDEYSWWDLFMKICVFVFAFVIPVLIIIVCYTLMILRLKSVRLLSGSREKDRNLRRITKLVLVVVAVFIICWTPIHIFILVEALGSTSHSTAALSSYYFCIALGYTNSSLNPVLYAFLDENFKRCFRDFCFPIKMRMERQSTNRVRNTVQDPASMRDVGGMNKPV
# T2 sequence (P32300 whole entry): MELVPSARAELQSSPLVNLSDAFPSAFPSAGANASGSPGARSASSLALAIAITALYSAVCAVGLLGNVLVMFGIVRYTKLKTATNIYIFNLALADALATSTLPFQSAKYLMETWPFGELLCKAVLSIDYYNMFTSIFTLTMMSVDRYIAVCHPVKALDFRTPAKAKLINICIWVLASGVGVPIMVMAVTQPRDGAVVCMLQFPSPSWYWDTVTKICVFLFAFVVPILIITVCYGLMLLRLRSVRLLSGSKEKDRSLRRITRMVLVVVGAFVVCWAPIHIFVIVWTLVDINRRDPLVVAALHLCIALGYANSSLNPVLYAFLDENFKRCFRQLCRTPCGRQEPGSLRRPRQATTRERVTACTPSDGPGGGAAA
# T1 sequence (P42866 whole entry): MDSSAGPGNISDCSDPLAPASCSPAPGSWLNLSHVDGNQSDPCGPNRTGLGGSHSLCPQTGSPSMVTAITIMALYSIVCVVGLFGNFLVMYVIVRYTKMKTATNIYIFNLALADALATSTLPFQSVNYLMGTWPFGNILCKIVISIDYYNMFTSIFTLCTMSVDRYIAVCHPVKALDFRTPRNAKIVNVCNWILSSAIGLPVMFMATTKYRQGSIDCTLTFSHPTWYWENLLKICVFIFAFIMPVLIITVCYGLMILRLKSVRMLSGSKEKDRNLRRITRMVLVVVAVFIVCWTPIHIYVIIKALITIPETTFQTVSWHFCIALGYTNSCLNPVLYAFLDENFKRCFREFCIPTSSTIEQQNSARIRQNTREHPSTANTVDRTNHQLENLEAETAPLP
SMILES,"ED50 [1, 7] [µg/kg]","Ke, Naloxone [2] [nM]",receptor selectivity of agonist (δ) ([3]; mouse vas deferens),"Ke, NTI [3, 8] [nM]",IC50 [4] [pM],"Ke, norBNI [5] [nM]",ED (200% urine output) [6] [µg/kg],ED (500% urine output) [6] [µg/kg],receptor selectivity of agonist (κ) [5],ED50 [1] [µg/kg],"Ke, NTI [3] [nM]",analgesic activity [1],"Diuretic action (in words) ([6]; s.c., from ED200 values)"
"CN(C(=O)/C=C/c1cccc([N+](=O)[O-])c1)[C@H]1CC[C@@]2(O)[C@H]3Cc4ccc(O)c5c4[C@@]2(CCN3CC2CC2)[C@H]1O5 [Compound 97, 17-cyclopropylmethyl-3,14β-dihydroxy-4,5α-epoxy-6α-(N-methyl-3-nitrocinnamamido)morphinan.cndot.phosphate]",1.9,163,selective agonists for δ receptors,2.92,247,13.9,4.5,93.9,–,–,–,–,–
"CC(C)CN(C(=O)/C=C/c1cccc(C(F)(F)F)c1)[C@@H]1CC[C@@]2(O)[C@H]3Cc4ccc(O)c5c4[C@@]2(CCN3CC2CC2)[C@H]1O5 [Compound 166, 17-cyclopropylmethyl-3,14β-dihydroxy-4,5α-epoxy-6β-(N-isobutyl-3-trifluoromethylcinnamamido)morphinan 0.5 tartrate]",–,36.9,–,20.5,28,4.78,–,–,–,–,–,–,–
"CCCCOC(=O)N(C)[C@@H]1CC[C@@]2(O)[C@H]3Cc4ccc(O)c5c4[C@@]2(CCN3CC2CC2)[C@H]1O5 [Compound 59, 17-cyclopropylmethyl-3,14β-dihydroxy-4,5α-epoxy-6β-(N-methylbutyroxycarbamido)morphinan.cndot.tartrate]",2.8,21.3,–,47.3,1140,0.151,10.5,2360,selective agonists for κ receptors,–,–,–,–
"CN(C(=O)CSc1ccccc1)[C@H]1CC[C@@]2(O)[C@H]3Cc4ccc(O)c5c4[C@@]2(CCN3CC2CC2)[C@H]1O5 [Compound 45, 17-cyclopropylmethyl-4,5α-epoxy-3,14β-dihydroxy-6α-(N-methylthiophenoxyacetamido)morphinan.cndot.tartrate]",–,26.5,–,135,185,0.416,8.1,857,selective agonists for κ receptors,3.8,–,–,–
"CN(C(=O)/C=C/c1ccoc1)[C@H]1CC[C@@]2(O)[C@H]3Cc4ccc(O)c5c4[C@@]2(CCN3CC2CC2)[C@H]1O5 [Compound 89, 17-cyclopropylmethyl-3,14β-dihydroxy-4,5α-epoxy-6α-[N-methyl-trans-3-(3-furyl)acrylamido]morphinan.cndot.tartrate]",4.71,18.3,–,–,93.4,0.85,1.2,16.2,selective agonists for κ receptors,–,15.6,–,–
"CCCCOC(=O)N(C)[C@H]1CC[C@@]2(O)[C@H]3Cc4ccc(O)c5c4[C@@]2(CCN3CC2CC2)[C@H]1O5 [Compound 47, 17-cyclopropylmethyl-4,5α-epoxy-3,14β-dihydroxy-6α-(N-methylbutyroxycarbamido)morphinan.cndot.tartrate]",0.52,63.5,–,10.4,439,0.140,1.6,–,selective agonists for κ receptors,–,–,particularly strong analgesic activity,–
"CCCCCC(=O)N(C)[C@H]1CC[C@@]2(O)[C@H]3Cc4ccc(O)c5c4[C@@]2(CCN3CC2CC2)[C@H]1O5 [Compound 39, 17-cyclopropylmethyl-3,14β-dihydroxy-4,5α-epoxy-6α-(N-methylhexanamido)morphinan.cndot.tartrate]",8.8,89.9,–,99.3,568,1.01,4.1,228,selective agonists for κ receptors,–,–,–,–
"CN(C(=O)/C=C/c1ccc(C(F)(F)F)cc1)[C@@H]1CC[C@@]2(O)[C@H]3Cc4ccc(O)c5c4[C@@]2(CCN3CC2CC2)[C@H]1O5 [Compound 73, 17-cyclopropylmethyl-3,14β-dihydroxy-4,5α-epoxy-6β-(N-methyl-4-trifluoromethylcinnamamido)morphinan.cndot.tartrate]",23,524,–,78,72,0.272,–,–,selective agonists for κ receptors,–,–,–,–
"CN(C(=O)/C=C/c1cccc(F)c1)[C@H]1CC[C@@]2(O)[C@H]3Cc4ccc(O)c5c4[C@@]2(CCN3CC2CC2)[C@H]1O5 [Compound 96, 17-cyclopropylmethyl-3,14β-dihydroxy-4,5α-epoxy-6α-(N-methyl-3-fluorocinnamamido)morphinan.cndot.tartrate]",0.86,32.5,–,1.61,346,4.21,1.3,54.9,–,–,–,particularly strong analgesic activity,–
"CC(=O)Oc1ccc2c3c1O[C@H]1[C@H](N(C)C(=O)/C=C/c4cccc(C(F)(F)F)c4)CC[C@@]4(O)[C@@H](C2)N(CC2CC2)CC[C@]314 [Compound 141, 17-cyclopropylmethyl-3-acetoxy-14β-hydroxy-4,5α-epoxy-6β-(N-methyl-3-trifluoromethylcinnamamido)morphinan.cndot.tartrate]",10,142,–,184,160,1.39,31.9,3450,selective agonists for κ receptors,–,–,–,–
"C=CCN1CC[C@]23c4c5ccc(O)c4O[C@H]2[C@@H](N(C)C(=O)Cc2ccc(Cl)c(Cl)c2)CC[C@@]3(O)[C@H]1C5 [Compound 122, 17-allyl-3,14β-dihydroxy-4,5α-epoxy-6α-(N-methyl-3,4-dichlorophenylacetamido)morphinan.cndot.hydrochloride]",340,59.5,–,42.7,3010,0.358,–,–,selective agonists for κ receptors,–,–,–,–
"CN(C(=O)C#Cc1ccc(C(F)(F)F)cc1)[C@H]1CC[C@@]2(O)[C@H]3Cc4ccc(O)c5c4[C@@]2(CCN3CC2CC2)[C@H]1O5 [Compound 126, 17-Cyclopropylmethyl-3,14β-dihydroxy-4,5α-epoxy-6α-[N-methyl-3-(4-trifluoromethylphenyl)propiolamido]morphinan.cndot.0.5 tartrate]",–,40.2,selective agonists for δ receptors,0.0065,969,1.20,–,–,–,–,–,–,–
"CN(C(=O)/C=C/c1ccc(Cl)cc1)[C@@H]1CC[C@@]2(O)[C@H]3Cc4ccc(O)c5c4[C@@]2(CCN3CC2CC2)[C@H]1O5 [Compound 152, 17-cyclopropylmethyl-3,14β-dihydroxy-4,5α-epoxy-6β-(N-methyl-4-chlorocinnamamido)morphinan hydrochloride]",–,17.5,–,–,–,0.039,0.71,9.53,selective agonists for κ receptors,3.8,35.1,–,extremely strong diuretic action
"CC(=O)Oc1ccc2c3c1O[C@H]1[C@H](N(C)C(=O)/C=C/c4ccccc4)CC[C@@]4(O)[C@@H](C2)N(CC2CC2)CC[C@]314 [Compound 140, 17-Cyclopropylmethyl-3-acetoxy-14β-hydroxy-4,5α-epoxy-6β-(N-methylcinnamamido)morphinan.cndot.tartrate]",–,320,–,261,413,1.06,–,–,selective agonists for κ receptors,3.4,–,–,–

# From patent US6177438A, “Morphinan derivatives and pharmaceutical use thereof” (priority 1993, dated 2001)
